Assay results from US9155761B2, “Method for the treatment of cancer” (UNIVERSITY COLLEGE CORK, NATIONAL UNIVERSITY OF IRELAND, …, priority 2009, dated 2015).
“Also recorded” adds a separate entry of the source.

Tests used:
LC3 in OE33 cells = experiment: LC3 / GFP-LC3 processing and distribution (Western blot, fluorescence microscopy); type: cell-based, human
Protocol: (§1) Total cellular protein extracts were prepared by scraping the cells into modified RIPA buffer (50 mM Tris HCl (pH 7.4), 150 mM NaCl, 0.25% Sodium deoxycholate, 1% Igepal, protease inhibitors 1 mM EDTA, 1× Pefabloc, 1× protease inhibitor cocktail, 1 mM Na3VO4, 1 mM NaF). All protein samples were separated by SDS-PAGE (10/12%) and electrophoretically transferred onto nitrocellulose membrane. All primary antibodies were incubated overnight at 4° C.: anti-phospho mTOR (Ser 2448) and anti-p70^S6K (Thr 389) (Cell Signaling Technologies, UK), anti-Beclin-1 (BD Biosciences, UK) and anti-LC3 (Medical & Biological Laboratories, Japan). The membranes were incubated with the relevant horseradish peroxidase conjugated secondary antibodies (DakoCytomation, Dublin) and detected by chemiluminescence (ECL Amersham, UK).
(§2) To visualize and quantify the formation of autophagic vesicles, the green fluorescent protein (GFP)-LC3 (pEGFP-LC3) expression vector, kindly supplied by Dr. T. Yoshimori (National Institute of Genetics, Japan) was used. Cells were transiently transfected with the Amaxa electroporation system according to the supplier's protocol. Twenty-four hours post transfection, cells were treated with 5-FU and/or Cisplatin, fixed in 4% paraformaldehyde in PBS and transferred onto slides using a non-fluorescent fixative for analysis by fluorescence microscopy. Alternatively, Western Blot analysis was used to assess the expression and processing of LC3. […] The membrane sequestered, lipid-conjugated form of LC3-II remains with the autophagosome membrane after the vesicle has formed, and levels of both isoform are detected by Western Blot. Transfection efficiency was consistent for a given cell line, OE33 and KYSE450 cell lines (˜60-70%) compared to OE19 and OE21 cell lines (˜30%).

LC3 in KYSE450 cells = experiment: as above; type: cell-based, human
Protocol: as §1, §2

LC3 in OE21 cells = experiment: as above; type: cell-based, human
Protocol: as §1, §2

LC3 in OE19 cells = experiment: as above; type: cell-based, human
Protocol: as §1, §2

LLC-Luc cells = experiment: FITC conjugated LC3 staining of LLC-Luc cells in vitro; type: cell-based; details: 5-FU in vitro, 24 and 48 hours
Description: FITC conjugated LC3 (a known marker of autophagy), forms a green punctate staining pattern in the cytoplasm when it accumulates in forming autophagosomes.

[1] = 5-FU or cisplatin (images not shown)

SMILES: O=c1[nH]cc(F)c(=O)[nH]1 [5-FU, 5-fluorouracil]
- GFP-LC3 distribution (fluorescence microscopy) (LC3 in OE33 cells; [1]): Diffuse cytoplasmic localization of GFP-LC3
- induction of autophagosome-associated LC3II band (Western blot) (LC3 in OE33 cells; 24 and 48 hours): no induction of a lower autophagosome-associated LC3II-band
- GFP-LC3 distribution (fluorescence microscopy) (LC3 in KYSE450 cells; 5-FU or cisplatin (data not shown)): Redistribution of GFP-LC3 from a diffuse cytosolic to a punctate autophagosome-associated pattern
- LC3II levels (Western blot, GFP-LC3) (LC3 in KYSE450 cells; 5-FU, 24 hours): significant increase in LC3II levels
- GFP-LC3 distribution (fluorescence microscopy) (LC3 in OE21 cells; [1]): Diffuse cytoplasmic localization of GFP-LC3
- induction of autophagosome-associated LC3II band (Western blot) (LC3 in OE21 cells; 24 and 48 hours): no induction of a lower autophagosome-associated LC3II-band
- GFP-LC3 distribution (fluorescence microscopy) (LC3 in OE19 cells; 5-FU (25 & 50 μM) or cisplatin (10 & 25 μM)): Redistribution of GFP-LC3 from a diffuse cytosolic to a punctate autophagosome-associated pattern; also recorded: bright punctate patterns of GFP-LC3 fluorescence
- LC3II levels (Western blot, GFP-LC3) (LC3 in OE19 cells; 5-FU, 24 hours): significant increase in LC3II levels
- autophagy (FITC conjugated LC3 punctate staining) (LLC-Luc cells): the extent of autophagy is greatly enhanced
